Measured values from patent publication US10273290B2, “Hydrocarbon double-stapled stabilized HIV-1 GP41 heptad repeat domain peptides” (DANA-FARBER CANCER INSTITUTE, INC., priority 2009, dated 2019).
Bridge positions count the residues as written; N and C are the ends. Square brackets hold non-standard residues; d marks the D form. Peptide text beside a SMILES is read from it. S5 = C=CCCC[C@](C)(N)C(=O)O; Nle = CCCC[C@H](N)C(=O)O

What was measured:
[1] = test system: resistant primary R5 isolate YU2; test: Luciferase-based HIV-1 infectivity assay, YU2; format: cell-based; conditions: compared to T649v
From the text: Also the direct inhibitory activity of modified polypeptides and the antibodies targeted thereto can be quantified based upon their capacity to directly block HIV infection of CD4-positive and CCR5-expressing canine thymus cells. Recombinant HIV-1 viruses (eg. HXBc2, YU2, and additional strains available through the NIH AIDS Research and Reference Reagent Program) expressing firefly luciferase and containing the indicated envelope glycoproteins can be used to infect Cf2Th-CD4-CCR5/CXCR4 cells in the presence of serially diluted modified HIV-1 gp41 polypeptides or antibodies targeted thereto After 48 hours, the cells are lysed and luciferase activity is quantified (Si, Z. H., M. Cayabyab, and J. Sodroski, Journal of Virology, 2001. 75(9): p. 4208-4218 Si, Z. H., et al., PNAS, 2004. 101(14): p. 5036-5041). The identical experiment is performed with the amphotropic murine leukemia virus (AMLV), to monitor for any nonspecific effects of the modified polypeptides or antibodies. […]
HIV-1 infectivity assays were performed using known methods (Madani et al., 2007 Inhibition of human immunodeficiency virus envelope glycoprotein-mediated single cell lysis by low-molecular-weight antagonists of viral entry. J Virol, 81: 532-538; and Si et al., 2001 Envelope glycoprotein determinants of neutralization resistance in a simian-human immunodeficiency virus (SHIV-HXBc2P 3.2) derived by passage in monkeys. J Virol, 75:4208-4218; both incorporated herein by reference). […] D-luciferin (50 μL of 1 mM stock in 100 μL luciferin buffer) is then added to each well and luciferase activity measured using a luminometer (EG&G Berthold).
To assess the functional impact of hydrocarbon stapling on gp41-based fusion inhibitor activity, SAH-gp41 peptides were tested and compared to their unmodified counterparts in a luciferase-based HIV-1 infectivity assay. Recombinant HIV-1 bearing the envelope glycoproteins from three distinct HIV-1 strains, HXBc2, ADA, and HXBc2P 3.2, and a negative control virus bearing the amphotropic murine leukemia virus (A-MLV) envelope glycoproteins, were evaluated. […]

Chymotrypsin, pH 7 = test: Chymotrypsin, pH 7
From the text: Table printed on a drawing sheet, FIG. 17C
Title: Chymotrypsin, pH 7
First reader's note: The table also serves as the legend of the plot of fraction intact over time; the line and marker symbols are left out.

pepsin = test: Protease resistance assay, pepsin at pH 2; conditions: pepsin (isolated protease) in buffer, pH 2
Description: The DAD signal was set to 280 nm with an 8 nm bandwidth and MSD set to scan mode with one channel at (M+2H)/2, +1 mass units and the other at (M+3H)/3, +1 mass units. […] Reaction samples were composed of 5 μL peptide in DMSO (1 mM stock) and 195 μL of buffer consisting of 50 mM phosphate buffer pH 7.4 containing 2 mM CaCl2. Upon injection of the 0 hr time point sample, 2 μL of 50 ng/μL chymotrypsin (Sigma) was added and the amount of intact peptide quantitated by serial injection over time. An internal control of acetylated tryptophan carboxamide at a concentration of 100 μM was used to normalize each MSD data point. A plot of MSD area versus time yielded an exponential decay curve and half-lives were determined by nonlinear regression analysis using Prism software (GraphPad). The assay was also performed using trypsin and pepsin in their appropriate buffer conditions.

chymotrypsin = target: T1, chymotrypsin (Bos taurus, UniProt P00766); test: Protease resistance assay, chymotrypsin (LC/MS); format: in vitro ADME; conditions: pH 7.4, 0.5 chymotrypsin, peptide 25 μM
T1 construct: purchased Sigma

[2] = Circular dichroism, α-helical content; format: physicochemical
Description: The α-helicity of stapled modified polypeptides was compared to their unmodified counterparts by circular dichroism. CD spectra were obtained on an Aviv spectropolarimeter at 20° C. using the following standard measurement parameters: wavelength, 190-260 nm; step resolution, 0.5 nm; speed, 20 nm/sec; accumulations, 10; response, 1 sec; bandwidth, 1 nm; path length, 0.1 cm. The α-helical content of each peptide was calculated by dividing the mean residue ellipticity [θ]222obs, by the reported [θ]222obs for a model helical peptide (Forood, B., E. J. Feliciano, and K. P. Nambiar, PNAS, 1993. 90(3): p. 838-842; J. Martin Scholtz, Biopolymers, 1991. 31(13): p. 1463-1470; Lawless, M. K., et al., Biochemistry, 1996. 35(42): p. 13697-13708) or using, for example, the Aviv machine using CDNN software developed by Brohm in order to deduce five different secondary structure fractions (helix, parallel and antiparallel beta-sheet, beta-turn and random coil). Protein Engineering, 1992. 5(3); p. 191-195
In order to evaluate secondary structure improvements of hydrocarbon-stapled peptides, we record and analyze circular dichroism (CD) spectra on an Aviv Biomedical spectrometer (model 410), as described above. […] The CD spectra are initially plotted as wavelength versus millidegree. […] After conversion to mean residue ellipticity, percent α-helicity can be calculated using the equation, % helicity=100×[θ]222/^max[θ]222, where ^max[θ]222=−40,000×[1−(2.5/number of amino acid residues)]. We also employ the curve-fitting CDDN software that is bundled with our spectrometer to calculate the relative fractions of secondary structure including α-helix, parallel and antiparallel β-sheet, β-turn and random coil.

With CCCC[C@H](NC(C)=O)C(=O)N[C@H](C(=O)N[C@@H](Cc1c[nH]c2ccccc12)C(=O)N[C@@]1(C)CCCC=CCCC[C@@](C)(C(=O)N[C@@H](CCC(=O)O)C(=O)N[C@H](C(=O)N[C@@H](CC(N)=O)C(=O)N[C@@H](CC(N)=O)C(=O)N[C@@H](Cc2ccc(O)cc2)C(=O)N[C@H](C(=O)N[C@@H](CO)C(=O)N[C@@H](CC(C)C)C(=O)N[C@H](C(=O)N[C@@H](Cc2c[nH]cn2)C(=O)N[C@@H](CO)C(=O)N[C@@H](CC(C)C)C(=O)N[C@H](C(=O)N[C@@H](CCC(=O)O)C(=O)N[C@@H](CCC(=O)O)C(=O)N[C@@H](CO)C(=O)N[C@@H](CCC(N)=O)C(=O)N[C@@H](CC(N)=O)C(=O)N[C@@H](CCC(N)=O)C(=O)N[C@@H](CCC(N)=O)C(=O)N[C@@H](CCC(=O)O)C(=O)N[C@@H](CCCCN)C(=O)N[C@@H](CC(N)=O)C(=O)N[C@@H](CCC(=O)O)C(=O)N[C@@H](CCC(N)=O)C(=O)N[C@@H](CCC(=O)O)C(=O)N[C@@H](CC(C)C)C(=O)N[C@@H](CC(C)C)C(=O)N[C@@H](CCC(=O)O)C(N)=O)[C@@H](C)CC)[C@@H](C)CC)[C@@H](C)O)[C@@H](C)CC)NC(=O)[C@H](CC(=O)O)NC(=O)[C@H](Cc2c[nH]c3ccccc23)NC(=O)[C@H](CCC(=O)O)NC1=O)[C@@H](C)O [SAH-gp41(626-662)(A)] (Ac-[Nle]TW[S5]EWD[S5]EINNYTSLIHSLIEESQNQQEKNEQELLE-NH2; staple 4-8; N-terminus and C-terminus assumed) the “anti-YU2 activity, in words” value [1] was “enhanced anti-YU2 activity”, the “Half-Life” value (Chymotrypsin, pH 7) was 1.93 h and the half-life at 25 μM (pepsin) was 1.97 h. It also gave a Half-Life (chymotrypsin) of 1.32 h.

In the case of CCCC[C@H](NC(C)=O)C(=O)N[C@H](C(=O)N[C@@H](Cc1c[nH]c2ccccc12)C(=O)N[C@@H](CCCC)C(=O)N[C@@H](CCC(=O)O)C(=O)N[C@@H](Cc1c[nH]c2ccccc12)C(=O)N[C@@H](CC(=O)O)C(=O)N[C@@H](CCCNC(=N)N)C(=O)N[C@@H](CCC(=O)O)C(=O)N[C@H](C(=O)N[C@@H](CC(N)=O)C(=O)N[C@@H](CC(N)=O)C(=O)N[C@@H](Cc1ccc(O)cc1)C(=O)N[C@H](C(=O)N[C@@H](CO)C(=O)N[C@@H](CC(C)C)C(=O)N[C@H](C(=O)N[C@@H](Cc1c[nH]cn1)C(=O)N[C@@H](CO)C(=O)N[C@@H](CC(C)C)C(=O)N[C@H](C(=O)N[C@@H](CCC(=O)O)C(=O)N[C@@H](CCC(=O)O)C(=O)N[C@@H](CO)C(=O)N[C@@H](CCC(N)=O)C(=O)N[C@@H](CC(N)=O)C(=O)N[C@@H](CCC(N)=O)C(=O)N[C@@]1(C)CCCC=CCCC[C@@](C)(C(=O)N[C@@H](CCC(N)=O)C(=O)N[C@@H](CCC(=O)O)C(=O)N[C@@H](CC(C)C)C(=O)N[C@@H](CC(C)C)C(=O)N[C@@H](CCC(=O)O)C(N)=O)NC(=O)[C@H](CC(N)=O)NC(=O)[C@H](CCCCN)NC(=O)[C@H](CCC(=O)O)NC1=O)[C@@H](C)CC)[C@@H](C)CC)[C@@H](C)O)[C@@H](C)CC)[C@@H](C)O [SAH-gp41(626-662)(F)] (Ac-[Nle]TW[Nle]EWDREINNYTSLIHSLIEESQNQ[S5]EKN[S5]QELLE-NH2; staple 28-32; N-terminus and C-terminus assumed), the “anti-YU2 activity, in words” value [1] is reported as “enhanced anti-YU2 activity”, the “% helicity at pH 2” value ([2]; pH 2) is reported as 82% and the “% helicity at pH 7” value ([2]; pH 7) is reported as 63%. For the same compound, the “Half-Life” value (Chymotrypsin, pH 7) was 1.28 h, the half-life at 25 μM (pepsin) was 2.15 h and the Half-Life (chymotrypsin) was 1.7 h.
